# From ChEMBL document CHEMBL4627257, “Targeting the DNA damage response (DDR) by natural compounds” (Bioorg Med Chem, 2020)
# Active and inactive are the calls of the source. The calls are words filed in the database; no cut-off is given here.
# How the values were obtained:
# SU.86.86 [1] = assay: Induction of DNA damage in human SU8686 cells assessed as increase in gammaH2AX phosphorylation at […] at cytotoxic IC50 incubated for 24 hrs by fluorometry method; type: functional
# SU.86.86 [2] = assay: Induction of DNA damage in human SU8686 cells assessed as tail DNA formation at IC50 by alkaline Comet assay; type: functional, cell-based
# SU.86.86 [3] = assay: Induction of DNA damage in human SU8686 cells assessed as increase gammaH2AX protein level at IC50 for 24 hrs in presence of 5 uM cisplatin by western blot analysis; type: functional, cell-based
# SU.86.86 [4] = assay: Induction of DNA damage in human SU8686 cells assessed as tail DNA formation at IC50 in presence of 5 uM cisplatin by alkaline Comet assay; type: functional, cell-based
# SU.86.86 [5] = assay: Induction of DNA damage in human SU8686 cells assessed as increase in gammaH2AX phosphorylation at […] at cytotoxic IC50 in presence of 0.3 uM doxorubicin by fluorometry method; type: functional
# SU.86.86 [6] = assay: Induction of DNA damage in human SU8686 cells assessed as increase in gammaH2AX phosphorylation at […] at cytotoxic IC50 in presence of 5 uM cisplatin by fluorometry method; type: functional
# SU.86.86 [7] = assay: Induction of DNA damage in human SU8686 cells assessed as increase in gammaH2AX nuclear foci under basal condition at IC50 by fluorometry method; type: functional, cell-based
# SU.86.86 [8] = assay: Induction of DNA damage in human SU8686 cells assessed as increase gammaH2AX protein level at IC50 for 24 hrs in presence of 0.3 uM doxorubicin by western blot analysis; type: functional, cell-based
# SU.86.86 [9] = assay: Induction of DNA damage in human SU8686 cells assessed as increase gammaH2AX protein level at IC50 for 24 hrs by western blot analysis; type: functional, cell-based
smiles,measurement,setting,value
CC(C)[C@@H]1OC(=O)[C@@H](Cc2ccc(O)cc2)N(C)C(=O)[C@H](C(C)C)OC(=O)[C@@H](Cc2ccccc2)N(C)C(=O)[C@H](C(C)C)OC(=O)[C@@H](Cc2ccccc2)N(C)C1=O,Activity,SU.86.86 [1],>30%
same,Activity,SU.86.86 [2],Active
same,Activity,SU.86.86 [3],Active
same,Activity,SU.86.86 [4],Active
CC(C)=CCC[C@@H](C)c1ccc(C)c(O)c1 [XANTHORRIZOL],Activity,SU.86.86 [5],>20%
CC(C)=CCc1cc(-c2coc3cc(O)ccc3c2=O)ccc1O [NEOBAVAISOFLAVONE],Activity,SU.86.86 [5],>20%
same,Activity,SU.86.86 [6],>20%
C=C1CCC[C@H]2[C@](C)(CC3=C(O)C(=O)C=C(OC)C3=O)[C@@H](C)CC[C@@]12C,Activity,SU.86.86 [7],Active
same,Activity,SU.86.86 [8],Active
same,Activity,SU.86.86 [1],>30%
same,Activity,SU.86.86 [2],Active
same,Activity,SU.86.86 [3],Active
same,Activity,SU.86.86 [5],>20%
same,Activity,SU.86.86 [6],>20%
same,Activity,SU.86.86 [9],Active
O=C1C[C@@H](c2ccccc2)Oc2cc(O)cc(O)c21 [PINOCEMBRIN],Activity,SU.86.86 [1],>30%
CCCCCC(N)=O,Activity,SU.86.86 [1],>30%
same,Activity,SU.86.86 [5],>20%
C=CC(C)(C)[C@@]12C[C@H]3C(=O)N/C(=C/c4c[nH]cn4)C(=O)N3[C@@H]1Nc1ccccc12 [ROQUEFORTINE C],Activity,SU.86.86 [5],>20%
O=C1CCCN2[C@@H](CC1)C[C@]13CN4CCCC/C=C\CC[C@](O)(C=C(c5nccc6c5[nH]c5c(O)cccc56)[C@@H]1CC4)[C@H]23,Activity,SU.86.86 [5],>20%
same,Activity,SU.86.86 [6],>20%
COC1=CC(=O)[C@]2(C=C1OC)OC[C@H]1Oc3c4c(cc(O)c3C(=O)[C@H]12)OC(C)(C)C=C4,Activity,SU.86.86 [1],>30%
C/C=C(\C)[C@H]1[C@@H](/C=C/C=C(\C)[C@@H](O)[C@@H](C)CO)[C@@H]2C[C@@H](OC(=O)Cc3ccccc3)[C@](C)(O)C[C@H]2[C@@H]2O[C@@]21C,Activity,SU.86.86 [7],Active
same,Activity,SU.86.86 [2],Active
same,Activity,SU.86.86 [5],>20%
C=C1[C@@H](C)[C@H]2[C@H](Cc3ccccc3)NC(=O)[C@]23[C@H](OC(C)=O)/C=C\[C@@H](C)C[C@@H](C)C/C=C\[C@H]3[C@@H]1O,Activity,SU.86.86 [1],>=30%
COC1=C(Br)[C@@H](O)[C@]2(C=C1Br)CC(C(=O)NC[C@@H](O)c1cc(Br)c(OC[C@@H](O)CNC(=O)C3=NO[C@]4(C=C(Br)C(OC)=C(Br)[C@@H]4O)C3)c(Br)c1)=NO2,Activity,SU.86.86 [5],>20%
C=C1CC[C@@H]2C(C)(C)CCC[C@@]2(C)[C@@H]1CC/C(C)=C/Cn1c[n+](C)c2ncnc(NO)c21,Activity,SU.86.86 [6],>20%
O=C1c2cccc(O)c2C(=O)c2c(O)cc(CO)cc21 [ALOE-EMODIN],Activity,SU.86.86 [5],>20%
CC1=CCC[C@H]2[C@](C)(Cc3cc(O)ccc3O)[C@@H](C)CC[C@]12C [AVAROL],Activity,SU.86.86 [5],>20%
COc1ccc(CC#N)c(O)c1,Activity,SU.86.86 [5],>20%
C=C[C@@](C)(/C=C/c1ccc(O)cc1)CCC=C(C)C [BAKUCHIOL],Activity,SU.86.86 [5],>20%
CCOC(=O)c1cc(Br)c(Br)[nH]1,Activity,SU.86.86 [5],>20%
CCCCC/C=C/C(=O)[C@H]1C(=O)O[C@@]2(C)C(=O)C(C=O)=C3C=C(C)OC=C3[C@H]12,Activity,SU.86.86 [1],>30%
same,Activity,SU.86.86 [2],Active
same,Activity,SU.86.86 [3],Active
CC[C@H](C)[C@H](NC(=O)[C@H](Cc1ccccc1)NC(=O)[C@H](CC(C)C)NC(=O)[C@@H]1CCCN1C(=O)/C1=C/N[C@@H](C(C)C)C(=O)N2CCC[C@H]2C(=O)N[C@@H](C(C)C)C(=O)N[C@@H](Cc2ccccc2)C(=O)N2CCC[C@H]2C(=O)N1)C(N)=O,Activity,SU.86.86 [1],>30%
CC1=C(CC/C(C)=C/CC/C(C)=C/CCC2=CC(=O)OC2O)C(C)(C)CCC1 (stereo unspecified) [LUFFARIELLOLIDE],Activity,SU.86.86 [5],>20%
same,Activity,SU.86.86 [6],>20%
CC[C@H](C)C1C(=O)O[C@H](C(C)C)C(=O)N(C)[C@@H]([C@@H](C)CC)C(=O)O[C@H](C(C)C)C(=O)N(C)[C@@H](C(C)C)C(=O)O[C@H](C(C)C)C(=O)N1C (stereo partly specified),Activity,SU.86.86 [5],>20%
COC(=O)c1cc(O)cc(OC)c1C(=O)c1c(O)c(Cl)c(C)c(Cl)c1O [DIHYDROGEODIN],Activity,SU.86.86 [5],>20%
COC1=C(Br)[C@H](O)[C@](O)(CC#N)C=C1Br,Activity,SU.86.86 [5],>20%
CCCCCc1cc(OC)c(OC(=O)c2c(O)cc(OC)cc2CCC)c(O)c1C(=O)O,Activity,SU.86.86 [5],>20%
[O-][n+]1ccc2c([nH]c3ccccc32)c1C1=C[C@@]2(O)CC/C=C\CCCCN3CC[C@@H]1[C@]1(CC/C=C\CCCCN[C@H]12)C3,Activity,SU.86.86 [5],>20%
COC(=O)/C=C/Oc1ccc(OC)cc1,Activity,SU.86.86 [5],>20%
O=c1cc(CO)occ1O [KOJIC ACID],Activity,SU.86.86 [5],>20%
